Laboratory results taken from the OligoGym collection.
Bases are written 5' to 3'; sugars and linkages follow in the same order, as letters with counts (s phosphorothioate, o phosphodiester; PS: all linkages phosphorothioate). The collection does not say whether C is 5-methylated. l = locked nucleic acid (LNA); d = 2'-deoxy (DNA)

biological target: Tau; experiment: rat primary cortical neurons, FLIPR, 25 uM ASO

| Sequence | calcium oscillation score |
| --- | --- |
| AGTCCTAATCCTGTGC (sugars l3 d10 l3, PS) | 25.3 % of control |
| AGTCTACCATGTCGAT (sugars l3 d10 l3, PS) | 69.1 % of control |
| AGTCTACCATGTCGATGCTG (sugars l3 d14 l3, PS) | 71.2 % of control |
| AGTCTTTATTAACACTC (sugars l4 d9 l4, PS) | 60.8 % of control |
| AGTGACAGAAGAGACG (sugars l3 d10 l3, PS) | 9.04 % of control |
| AGTGATTAACCAATTAACCG (sugars l3 d14 l3, PS) | 5.18 % of control |
| AGTGGAGCCGATCTTG (sugars l3 d10 l3, PS) | 0 % of control |
| AGTTCCCACAATTCCTA (sugars l2 d13 l2, PS) | 38.7 % of control |
| AGTTCCCACAATTCCTAC (sugars l2 d13 l3, PS) | 50.4 % of control |
| AGTTTGTGCAAGGTC (sugars l3 d9 l3, PS) | 0 % of control |
| ATAAATTTGAACCCCT (sugars l3 d9 l4, PS) | 49.7 % of control |
| ATACAATAAATACCATATTC (sugars l3 d14 l3, PS) | 81 % of control |
| ATACAGTTGGCCCTACCATA (sugars l3 d14 l3, PS) | 30.9 % of control |
| ATACTCAAATTCTTCCT (sugars l3 d10 l4, PS) | 84.8 % of control |
| ATACTCAAATTCTTCCTT (sugars l4 d11 l3, PS) | 70.9 % of control |
| ATACTCAAATTCTTCCTTT (sugars l3 d12 l4, PS) | 74 % of control |
| ATAGATTTTACTACTC (sugars l4 d8 l4, PS) | 73.3 % of control |
| ATAGCAAACAGGATAC (sugars l3 d10 l3, PS) | 27.6 % of control |
| ATAGTCACTCTGGTG (sugars l3 d9 l3, PS) | 27.8 % of control |
| ATAGTCACTCTGGTGA (sugars l3 d10 l3, PS) | 85.7 % of control |
| ATATCATATCCTAAGC (sugars l4 d9 l3, PS) | 50.9 % of control |
| ATATTCCACACATAAACAA (sugars l4 d11 l4, PS) | 62.8 % of control |

| Sequence | calcium oscillation score |
| --- | --- |
| ATATTGAACTCACCCA (sugars l4 d9 l3, PS) | 67.3 % of control |
| ATATTGAACTCACCCAC (sugars l2 d11 l4, PS) | 54.3 % of control |
| ATATTGTCCAGGGACCCAAT (sugars l3 d14 l3, PS) | 19.9 % of control |
| ATATTTAGTTTTCCCAC (sugars l2 d11 l4, PS) | 42.4 % of control |
| ATCAATTCTCATTTCAACCT (sugars l3 d15 l2, PS) | 70.7 % of control |
| ATCAATTTGGAAAGATGAAA (sugars l3 d14 l3, PS) | 10.4 % of control |
| ATCACAAACCCTGCTTGGCC (sugars l3 d14 l3, PS) | 55.2 % of control |
| ATCACTGATTTTGAAGTCCC (sugars l5 d10 l5, PS) | ≥ 200 % of control |
| ATCACTTCGAACTCCT (sugars l3 d10 l3, PS) | 159 % of control |
| ATCAGAGGGTCTGAGC (sugars l3 d10 l3, PS) | 59.3 % of control |
| ATCAGAGGTTTCAGAG (sugars l3 d10 l3, PS) | 0 % of control |
| ATCAGCCTTCATCACACT (sugars l4 d12 l2, PS) | 87.7 % of control |
| ATCAGTCTTATCTCCCA (sugars l3 d12 l2, PS) | 49.2 % of control |
| ATCATAATCCTACCACCA (sugars l3 d13 l2, PS) | 87.5 % of control |
| ATCATATCCTAAGCAT (sugars l3 d9 l4, PS) | 60.1 % of control |
| ATCATTTTTTATTCATAACT (sugars l4 d12 l4, PS) | 53.4 % of control |
| ATCCAAGTCAATGCCTGGCT (sugars l3 d14 l3, PS) | 34.2 % of control |
| ATCCAGCCATATTTCAACTC (sugars l3 d14 l3, PS) | 28.2 % of control |
| ATCCATTAATTTAGCC (sugars l3 d10 l3, PS) | 76.7 % of control |
| ATCCTAAGTCAACCACA (sugars l2 d11 l4, PS) | 69 % of control |
| ATCCTGGTGGCGTTGGCCTG (sugars l3 d14 l3, PS) | 0 % of control |
| ATCCTTCTAAGTACAA (sugars l4 d8 l4, PS) | 85.6 % of control |

| Sequence | calcium oscillation score |
| --- | --- |
| ATCGCTTCCAGTCC (sugars l3 d8 l3, PS) | 29.9 % of control |
| ATCTCAAGTCTTATTCT (sugars l4 d9 l4, PS) | 48.8 % of control |
| ATCTTAATTCATTTAATTCT (sugars l4 d12 l4, PS) | 93.1 % of control |
| ATCTTAGGCTGGCCC (sugars l3 d9 l3, PS) | 50.6 % of control |
| ATCTTATTGCTTTCCAA (sugars l4 d10 l3, PS) | 75.3 % of control |
| ATCTTCGACTGGACTC (sugars l3 d10 l3, PS) | 59.7 % of control |
| ATGACATTTTAAACCCC (sugars l3 d11 l3, PS) | 54.9 % of control |
| ATGACCTCAACTCTACCT (sugars l3 d13 l2, PS) | 61 % of control |
| ATGAGCACTAACTCTAAGTA (sugars l3 d14 l3, PS) | 4.76 % of control |
| ATGAGCCACACTTGGAGGTC (sugars l3 d14 l3, PS) | 19.9 % of control |
| ATGATGGATGTTGCCT (sugars l3 d10 l3, PS) | 0 % of control |
| ATGATGGATGTTGCCTAATG (sugars l3 d14 l3, PS) | 0 % of control |
| ATGATTAATTACACCCC (sugars l3 d11 l3, PS) | 8.2 % of control |
| ATGATTGTGGGCTTA (sugars l3 d9 l3, PS) | 7.83 % of control |
| ATGATTGTGGGCTTAG (sugars l3 d10 l3, PS) | 24.4 % of control |
| ATGCAGGAGTTGTAAG (sugars l3 d10 l3, PS) | 40.8 % of control |
| ATGCTTACACACCACA (sugars l2 d10 l4, PS) | 88.5 % of control |
| ATGGATGTTGCCTAATGAGC (sugars l3 d14 l3, PS) | 0 % of control |
| ATGTCGATGCTGCC (sugars l3 d8 l3, PS) | 137 % of control |
| ATGTCGATGCTGCCGG (sugars l3 d10 l3, PS) | 0 % of control |
| ATGTTGCCTAATGAGC (sugars l3 d10 l3, PS) | 69 % of control |
| ATGTTGCCTAATGAGCCACA (sugars l3 d14 l3, PS) | 31.6 % of control |

| Sequence | calcium oscillation score |
| --- | --- |
| ATGTTTTTTAACTCCCA (sugars l3 d11 l3, PS) | 83.5 % of control |
| ATTAACATATTTTTACCTA (sugars l4 d11 l4, PS) | 65.3 % of control |
| ATTAACCAATTAACCG (sugars l3 d10 l3, PS) | 103 % of control |
| ATTAACCAATTAACCGAACT (sugars l3 d14 l3, PS) | 45.2 % of control |
| ATTAACCCTTGATCATATTT (sugars l3 d14 l3, PS) | 40.5 % of control |
| ATTAACCGAACTGCGA (sugars l3 d10 l3, PS) | 10.9 % of control |
| ATTAATTACACCCCTG (sugars l3 d9 l4, PS) | 5.47 % of control |
| ATTAATTATCTGCACCT (sugars l4 d10 l3, PS) | 24.7 % of control |
| ATTAATTATTAAATCTTCT (sugars l4 d11 l4, PS) | 63.9 % of control |
| ATTAATTATTAAATCTTCTC (sugars l4 d12 l4, PS) | 72.6 % of control |
| ATTATCATCCATTCTGA (sugars l2 d11 l4, PS) | 45.6 % of control |
| ATTATTCTTTTTTTTTCCAC (sugars l3 d14 l3, PS) | 15.2 % of control |
| ATTATTTACACTGTCCT (sugars l2 d11 l4, PS) | 78.1 % of control |
| ATTCACACAACAAACTATT (sugars l4 d11 l4, PS) | 74.5 % of control |
| ATTCATAAATGACTATACTT (sugars l3 d14 l3, PS) | 68.5 % of control |
| ATTCATTTTACTTTACTTT (sugars l4 d11 l4, PS) | 64.6 % of control |
| ATTCATTTTACTTTACTTTT (sugars l4 d12 l4, PS) | 88.6 % of control |
| ATTCCACACATAAACAAACA (sugars l4 d12 l4, PS) | 63.8 % of control |
| ATTCCCAAATTCCTCATAAT (sugars l4 d14 l2, PS) | 58.6 % of control |
| ATTCCTTTCAATGACCA (sugars l4 d11 l2, PS) | 49.7 % of control |
| ATTCTCAGCACACCATT (sugars l4 d11 l2, PS) | 41.3 % of control |
| ATTGCAACTTTAACTCC (sugars l3 d10 l4, PS) | 62.9 % of control |

| Sequence | calcium oscillation score |
| --- | --- |
| ATTGTCCAGGGACCCAATCT (sugars l3 d14 l3, PS) | 50.9 % of control |
| ATTTAATTTATTTTTTACT (sugars l4 d11 l4, PS) | 60.1 % of control |
| ATTTAATTTATTTTTTACTT (sugars l4 d12 l4, PS) | 50.1 % of control |
| ATTTAGTCACCATCACT (sugars l3 d10 l4, PS) | 102 % of control |
| ATTTAGTTACTCATCC (sugars l4 d8 l4, PS) | 72.6 % of control |
| ATTTAGTTTTCCCACCC (sugars l2 d13 l2, PS) | 63.4 % of control |
| ATTTAGTTTTCCCACCCA (sugars l1 d15 l2, PS) | 48 % of control |
| ATTTATTAATTCATAAATGA (sugars l3 d14 l3, PS) | 46.3 % of control |
| ATTTATTCCATTGCTCT (sugars l2 d11 l4, PS) | 42.4 % of control |
| ATTTATTCTTTTTATTATTT (sugars l4 d12 l4, PS) | 59.6 % of control |
| ATTTCAGAGCAAAGTGACCC (sugars l3 d14 l3, PS) | 74.5 % of control |
| ATTTCCAAATTCACTT (sugars l3 d10 l3, PS) | 111 % of control |
| ATTTCCAAATTCACTTTTAC (sugars l1 d17 l2, PS) | ≥ 200 % of control |
| ATTTCCAAATTCACTTTTAC (sugars l2 d1 l2 d11 l4, PS) | 147 % of control |
| ATTTCCAAATTCACTTTTAC (sugars l2 d16 l2, PS) | ≥ 200 % of control |
| ATTTCCAAATTCACTTTTAC (sugars l3 d14 l3, PS) | ≥ 200 % of control |
| ATTTCCAAATTCACTTTTAC (sugars l4 d10 l2 d2 l2, PS) | 137 % of control |
| ATTTCCAAATTCACTTTTAC (sugars l4 d11 l5, PS) | 136 % of control |
| ATTTCCAAATTCACTTTTAC (sugars l5 d10 l5, PS) | ≥ 200 % of control |
| ATTTCCAAATTCACTTTTAC (sugars l5 d11 l4, PS) | 78.8 % of control |
| ATTTCCAAATTCACTTTTAC (sugars ldlllddddddddddlldll, PS) | 143 % of control |
